Results as given in article PMC7719179, “Small molecule inhibition of Dynamin-dependent endocytosis targets multiple niche signals and impairs leukemia stem cells” (Nature Communications, 2020).
“And” between values parts separate entries of the source, which are not always exact repeats. Equal values may be shown once.

How the values were obtained:
[1] = test system: ETP12 and ALL8 patient-derived xenografts; experiment: Survival (Kaplan-Meier) and leukemia growth delay in ETP12 and ALL8 xenograft recipients; assay type: in vivo, human
Method: Patient-derived xenograft models were established as previously described[97],[98]. All experiments were pre-approved by the Human Research Ethics Committee of the University of New South Wales (UNSW), the UNSW Animal Care and Ethics Committee, the Alfred Health Human Ethics Committee and the AMREP Animal Ethics Committee. For transplantation assays, 10^6 splenocytes harvested from successfully engrafted primary human ETP-ALL or T-ALL xenografts were injected into nonobese diabetic/severe combined immunodeficient (NOD.Cg-Prkdc^scid, also termed NOD/SCID) or NOD/SCID/Il2rg^tm1wjl/SzJ (NSG) mice[99]. Moreover, 1.5 × 10^6 cells splenocytes harvested from successfully engrafted patient-derived AML xenografts were injected into nonobese diabetic/severe immunodeficient (NOD.Cg-Rag1^tm1MomIl2rg^tm1wjl/SzJ, also termed NRG) mice expressing human IL-3, human GM-CSF and human SCF from the SGM3 triple transgene (NRGS)[100]. Engraftment into recipients was monitored by FACS analysis of peripheral blood as previously described. […] Both males and females were used. […] Kaplan–Meier survival and statistical analyses were performed using GraphPad Prism. 6.0 software (GraphPad Software, Inc.). […]
(blue circles) and ALL8 (red open circles) 24 hours after the last dose of drugs was administered.
therapy. Median is indicated (bar) with Mean ± SEM indicated for ETP12 and ALL8, 2-way ANOVA
period of administration is indicated in light grey.

[2] = test system: Ba/F3-IL7R^Stat5-CA cells; experiment: Cytotoxic activity in IL-7-dependent and IL-7-independent Ba/F3-IL7R^Stat5-CA cells; assay type: cell-based, murine; details: for Survival (%) over survival at day 0, reported as 100%: Ba/F3-IL7R^Stat5-CA cells, dose = IC50 or LC50 of each drug; for sensitivity of Ba/F3-IL7R^Stat5-CA cells with constitutive pStat5 (doxycycline): result in words
Excerpt: The doxycycline-inducible dual-colour TRMPVIR (TRE-dsRed-miR30/shRNA-PGK-Venus-IRES-rtTA3) retroviral vector[84] was kindly given by R. A. Dickins and was modified by replacing the dsRed-miR30/shRNA sequence by a T2A self-cleaving peptide[85] fusioned with the mCherry fluorescent protein (from TRIPZ, Addgene) inserted into the BamHI and EcoRI sites of the plasmid downstream of the TRE promoter to generate the TxTCPVIR (TRE-gene-T2A-mCherry-PGK-Venus-IRES-rtTA3) retroviral vector. Using standard cloning techniques, we inserted the full-length sequence of Stat5-CA from the pMig-R1 construct into the TxTCPVIR vector to generate the TxTCPVIR-Stat5-CA construct. All subcloned constructs were verified by DNA sequencing (Micromon, Monash University, Australia). Detailed cloning strategies, primers sequences and vectors are available on request.
Ba/F3 cells (kindly provided by a person from The Walter and Eliza Hall Institute of Medical Research) were infected with pMIG-R1/Il7r retroviral supernatants produced in 293T cells, and transduced cells were sorted with a BD Influx (BD Australia) and selected by culture in medium supplemented with 5 ng/mL rmIL-7 (#217-17, Pepro Tech, Rocky Hill NJ, USA) for 7 days. Ba/F3 cells stably expressing Il7r (Ba/F3-IL7R) were infected with TxTCPVIR-Stat5-CA retroviral supernatants produced in 293T. Cell sorting was performed with a BD Influx and transduced cells were treated with doxycycline for 48 h to induce the expression of the Stat5-CA-T2A-mCherry fusion protein.
Flow cytometry analyses were performed as previously described[10],[86] on single-cell suspensions stained using BD Pharmingen antibodies (BD Australia, North Ryde NSW, Australia) against mouse CD4 (RM4-5), CD8 (53-6.7), CD25 (PC61.5), CD44 (IM7), CD45.1 (A20), CD45.2 (104), Thy1.2 (53-2.1; #561616), TCRβ (H57-597), CD117 (ACK45), CD135 (A2F10.1), CD150 (TC15-12F12.2; #562373), B220 (RA3-6B2; #563708), CD3 (145-2C11; #563004), CD19 (ID3; #557655), Gr-1 (RB6-8C5; #563299 and #565033), CD11b (M1/70; #563015 and #560455), Ter119 (Ter119; #565523 and #557909), Sca-1 (D7; #558160) and an eBioscience antibody (eBioscience, Invitrogen) against mouse NOTCH1 (22E5). DN3 populations and IL-7R were stained using BioLegend antibodies (Australian Biosearch, Balcatta WA, Australia) against mouse CD28 (E18) and CD127 (A7R34), respectively. Apoptosis was measured using an antibody against AnnexinV (#556420, BD Australia) and the […] Sytox Blue (BD Australia) following the manufacturer’s protocol.

Lmo2^Tg DN3a thymocytes = experiment: Absolute numbers of co-cultured Lmo2^Tg DN3a thymocytes after in vitro treatment; assay type: cell-based, mouse; details: 72 h, Dynole 34-2 0.2 μM, Ruxolitinib 0.2 μM, DAPT 0.1 μM
Method: Pre-leukemic and leukemic thymocytes were purified by flow cytometry and co-cultured on GFP-positive OP9 and OP9-DL1 stromal cell lines, as described previously. Thymocytes were co-cultured in reconstituted alpha-MEM medium (#12318, Gibco, Grand Island NY, USA) supplemented with 20% FCS (#12318), HEPES 10 mM (#15630-080), sodium pyruvate 1 mM (#11360-070), β-mercaptoethanol 55 μM (#21985-023), Glutamax 2 mM (#15750-060), 1% Penicillin/Streptomycin (#15140-122), 5 ng/mL rmFLT-3 ligand (#250-31 L, Pepro Tech), 5 ng/mL rmIL-7 (#217-17, Pepro Tech) and 25 ng/mL rmSCF (#250-03, Pepro Tech). […]

Compound | survival of recipients, single agent ([1]; ETP12 and ALL8 xenografts, result in words) | Leukemia Growth Delay (LGD) Over Vehicle ([1]; PDX ALL8) [days] | Leukemia Growth Delay (LGD) Over Vehicle ([1]; PDX ETP12) [days] | Time to leukemia ([1]; PDX ETP12) | Survival (%) over survival at day 0, reported as 100% ([2]; +IL-7 -DOX, 0 h) | Survival (%) over survival at day 0, reported as 100% ([2]; +IL-7 -DOX, 24 h) | Survival (%) over survival at day 0, reported as 100% ([2]; +IL-7 -DOX, 72 h) | Survival (%) over survival at day 0, reported as 100% ([2]; +IL-7 -DOX, 96 h) | Survival (%) over survival at day 0, reported as 100% ([2]; -IL-7 +DOX, 0 h) | Survival (%) over survival at day 0, reported as 100% ([2]; -IL-7 +DOX, 24 h) | Survival (%) over survival at day 0, reported as 100% ([2]; -IL-7 +DOX, 48 h) | Survival (%) over survival at day 0, reported as 100% ([2]; -IL-7 +DOX, 72 h) | Survival (%) over survival at day 0, reported as 100% ([2]; -IL-7 +DOX, 96 h) | Survival (%) over survival at day 0, reported as 100% ([2]; -IL-7 +DOX, 120 h) | sensitivity of Ba/F3-IL7R^Stat5-CA cells with constitutive pStat5 (doxycycline) [2] | Absolute numbers DN3a cells (Lmo2^Tg DN3a thymocytes)
CCCCCCCCNC(=O)C(C#N)=Cc1cn(CCCN(C)C)c2ccccc12 [Dynole 34-2, 2-Cyano-N-octyl-3-(1-(3-dimethylaminopropyl)-1H-indol-3-yl)-acrylamide] | significant survival advantage | 2.62 | 7.34 | 4.63 weeks and 5.6 weeks and 4.86 weeks and 4.8 weeks and 5.54 weeks and 4.7 weeks and 4.81 weeks and 6.67 weeks | 100.02% and 100.26% and 101.92% and 100.41% and 100.83% | 43.12% and 51.68% and 50.50% and 59.30% and 47.40% and 40.60% | 14.22% and 14.73% and 23.20% and 19.38% and 17.76% and 14.96% | 9.23% and 10.77% and 10.13% and 6.51% and 4.52% and 2.59% | 100.62% and 100.47% and 99.53% and 102.59% and 101.73% and 102.89% | 90.53% and 91.07% and 101.15% and 104.21% and 101.37% and 100.26% | 94.10% and 95.40% and 97.40% and 99.30% and 95.90% | 93.90% and 97.20% and 90.70% and 94.80% and 93.20% and 97.10% | 93.40% and 86.60% and 95.50% and 96.20% and 87.10% and 90.40% | 91.10% and 96.40% and 90.00% and 90.90% and 93.10% and 83.00% | resistant | 28200 and 18800 and 27200 and 23300 and 23200
N#CC[C@H](C1CCCC1)n1cc(-c2ncnc3[nH]ccc23)cn1 [Ruxolitinib] |  |  |  |  | 101.66% and 101.91% and 100.26% and 101.92% and 100.41% and 100.83% | 71.50% and 70.41% and 55.25% and 49.40% and 37.10% and 63.11% |  |  | 100.45% and 99.83% and 99.53% and 102.59% and 101.73% and 102.89% | 85.97% and 82.57% and 104.88% and 98.10% and 101.20% and 101.43% | 97.70% and 95.00% and 95.90% and 97.50% and 97.30% and 99.10% | 94.40% and 93.30% and 85.80% and 83.20% and 99.40% and 84.90% | 93.30% and 85.80% and 83.20% and 99.40% | 92.90% and 90.20% and 86.50% and 89.30% and 78.60% and 92.10% | resistant | 
C[C@H](NC(=O)Cc1cc(F)cc(F)c1)C(=O)N[C@H](C(=O)OC(C)(C)C)c1ccccc1 [DAPT, N-[N-(3,5-Difluorophenacetyl)-L-alanyl]-S-phenylglycine t-butyl ester] |  |  |  |  |  |  |  |  |  |  |  |  |  |  |  | 26800 and 17800 and 27000 and 25800 and 24600
